Test results from patent publication US9645154B2, “Method for detecting cancer cell” (ARKRAY, Inc., priority 2010, dated 2017).

Legend:
Assay type in all cases: cell-based
[1] = tested on: human fibrosarcoma cell line HT1080; assay: Labeled sugar incorporation, fluorescence microscopy image analysis (positive rate); settings: for Positive rate (Cancer cells): Fibrosarcoma, threshold value 370; for Positive rate of cancer cells: fibrosarcoma cell line
From the text: (§1) In accordance with the conventional method, cultured human fibrosarcoma cell line HT1080 (DS Pharma Biomedical Co., Ltd.) was harvested with trypsin (Invitrogen). The human gastric cancer cell line SNU-1 (ATCC), which is a suspension cell line, was directly harvested without any trypsin treatment. The cell suspension of the harvested cancer cells was centrifuged, and the supernatant was removed. The cells were resuspended with Dulbecco's PBS (−) (Nissui Pharmaceutical Co., Ltd.) and centrifuged, and the supernatant was removed again.
When performing the hemolyzing treatment, the blood cell fraction collected as described above was hemolyzed using ammonium chloride (STEMCELL Technologies) according to the manufacture's manuals.
The number of the cells was counted for each cell line using a hemacytometer in accordance with the conventional method, and then 10^5 to 10^6 cells per sample (cell suspension) was aliquoted. Each of the sample was centrifuged to remove the supernatant. Subsequently, 2-NBDG (Wako Pure Chemical Industries, Ltd.; at the final concentration given in Table 3 or 4) dissolved in Dulbecco's PBS (−) was added thereto, and the cells were suspended well. After the reaction, Dulbecco's PBS (−) was added to the mixture, and the resultant was centrifuged to remove the supernatant. The cells were resuspended with Dulbecco's PBS (−) and centrifuged, and the supernatant was removed again. The steps of resuspending cells with Dulbecco's PBS (−), centrifuging and removing the supernatant were then repeated 2 to 3 times, thereby washing the cells thoroughly. The cells were resuspended with Dulbecco's PBS (−), the concentration thereof was adjusted, and then added dropwise to a 384-well plate. The plate was centrifuged to spin down the cells. The image was captured with a fluorescence microscope (Nikon Corp.) using B-2A filter combination (Nikon Corp.). The B-2A set covers the following wavelengths. EX (excitation wavelength): 475±15 nm, DM: 505 nm or longer, BA (fluorescence wavelength) 520 nm or longer.
(§2) The acquired images were analyzed using an image analysis software NIS-ELEMENTS (trade name, Nikon Corp.) to evaluate the fluorescence intensity of the cell. […]
In a manner similar to Example 2, each of human breast adenocarcinoma cells (cell line name: MCF-7; DS Pharma Biomedical Co., Ltd.), human colon adenocarcinoma cells (cell line name: SW620; DS Pharma Biomedical Co., Ltd.), human prostate cancer cells (cell line name: PC3; DS Pharma Biomedical Co., Ltd.), human alveolar epithelial cancer cells (cell line name: NCI-H358; DS Pharma Biomedical Co., Ltd.), human gastric cancer cells (cell line name: SNU-1; ATCC) and human fibrosarcoma cells (cell line name: HT1080; DS Pharma Biomedical Co., Ltd.) was detected with the labeled sugar (2-NBDG).

[2] = tested on: human gastric cancer cells (SNU-1); assay: as above; settings: threshold value 490
From the text: as §1
The number of the cells was counted for each cell line using a hemacytometer in accordance with the conventional method, and then 10^5 to 10^6 cells per sample (cell suspension) was aliquoted. Each of the sample was centrifuged to remove the supernatant. Subsequently, 2-NBDG (Wako Pure Chemical Industries, Ltd.; at the final concentration given in Table 3 or 4) dissolved in Dulbecco's PBS (−) was added thereto, and the cells were suspended well. […] The image was captured with a fluorescence microscope (Nikon Corp.) using B-2A filter combination (Nikon Corp.). […] EX (excitation wavelength): 475±15 nm, DM: 505 nm or longer, BA (fluorescence wavelength) 520 nm or longer.
as §2

[3] = tested on: human fibrosarcoma cell HT-1080; assay: Aminolevulinic acid labeling with or without iron ion and reducing agent (positive rate); settings: 0.3 mM, 37° C., 60 min
From the text: In accordance with the conventional method, human fibrosarcoma cell HT-1080 (DS Pharma Biomedical Co., Ltd.) and normal human dermal fibroblast cell NHDF (Lonza) in culture were harvested with trypsin (Invitrogen). The cell suspension of the harvested cancer cells was centrifuged, and the supernatant was removed. The cells were then resuspended with Dulbecco's PBS (+) (Nissui Pharmaceutical Co., Ltd.) and centrifuged, and the supernatant was removed again.
The number of the cells was counted using a hemacytometer in accordance with the conventional method, and then 10^5 to 10^6 cells per sample (cell suspension) was aliquoted. The sample was centrifuged to remove the supernatant. In the case an iron ion and a reducing agent were added, 0.3 mM of aminolevulinic acid (trade name: 5-AMINOLEVULINATE HYDROCHLORIDE, Cosmo Bio Co., Ltd.), 0.3 mM of FeCl2 and 0.3 mM of ascorbic acid dissolved in Dulbecco's PBS (+) were added thereto, and the cells were suspended well. In the case an iron ion and a reducing agent were not added, 0.3 mM of aminolevulinic acid dissolved in Dulbecco's PBS (+) was added singly, and the cells were suspended well. Each of the mixture was then allowed to react at 37° C. for 60 minutes. […]
The fluorescence filter set: EX (excitation wavelength) 402±7.5, DM 430 or longer, BA (fluorescence wavelength) 625±15.

[4] = hemolyzed, 10 mM, 5 min, 23° C.
[5] = single, Glucose conc.: 1 mM, Temp.: 37° C., Time: 30 min

O=[N+]([O-])c1ccc(N[C@H]2C(O)O[C@H](CO)[C@@H](O)[C@@H]2O)c2nonc12 (stereo partly drawn) [2-NBDG, 2-[N-(7-nitrobenz-2-oxa-1,3-diazol-4-yl)amino]-2-deoxy-D-glucose]
Positive rate (Cancer cells) [1, 4]: 100.0%
Positive rate (Cancer cells) [1, 5]: 100.0%
Positive rate of cancer cells ([1]; Mean luminance, hemolyzed, 10 mM, 5 min, 23° C., threshold value 436): 100.0%
Positive rate of cancer cells ([1]; Total luminance, hemolyzed, 10 mM, 5 min, 23° C., threshold value 35,000): 90.7%
Positive rate (Fibrosarcoma cell line) [1, 4]: 100.0%
Positive rate (HT1080 cells) ([1]; hemolyzed, 0.1 mM, 37° C., 30 min, threshold value 380): 33.3%
Positive rate (HT1080 cells) ([1]; hemolyzed, 1 mM, 37° C., 30 min, threshold value 520): 73.1%
Positive rate (HT1080 cells) ([1]; hemolyzed, 10 mM, 37° C., 30 min, threshold value 1150): 95.0%
Positive rate (HT1080 cells) ([1]; hemolyzed, 4° C., 10 mM, 5 min, threshold value 640): 79.0%
Positive rate (HT1080 cells) ([1]; hemolyzed, 23° C., 10 mM, 5 min, threshold value 640): 81.1%
Positive rate (HT1080 cells) ([1]; hemolyzed, 37° C., 10 mM, 5 min, threshold value 750): 89.4%
Positive rate (HT1080 cells) ([1]; hemolyzed, 5 min, 10 mM, 37° C., threshold value 570): 119.8%
Positive rate (HT1080 cells) ([1]; hemolyzed, 30 min, 10 mM, 37° C., threshold value 880): 107.8%
Positive rate (HT1080 cells) ([1]; hemolyzed, 60 min, 10 mM, 37° C., threshold value 750): 102.9%
Positive rate (Fibrosarcoma cell line) ([1]; not hemolyzed, 10 mM, 5 min, 23° C.): 92.6%
Positive rate (HT1080 cells) ([1]; without hemolyzing treatment, 0.1 mM, 37° C., 30 min, threshold value 280): 51.8%
Positive rate (HT1080 cells) ([1]; without hemolyzing treatment, 1 mM, 37° C., 30 min, threshold value 330): 89.5%
Positive rate (HT1080 cells) ([1]; without hemolyzing treatment, 10 mM, 37° C., 30 min, threshold value 450 (concentration series)): 90.0%
Positive rate (HT1080 cells) ([1]; without hemolyzing treatment, 4° C., 10 mM, 5 min, threshold value 310): 94.9%
Positive rate (HT1080 cells) ([1]; without hemolyzing treatment, 23° C., 10 mM, 5 min, threshold value 360): 92.6%
Positive rate (HT1080 cells) ([1]; without hemolyzing treatment, 37° C., 10 mM, 5 min, threshold value 390): 101.5%
Positive rate (HT1080 cells) ([1]; without hemolyzing treatment, 5 min, 10 mM, 37° C., threshold value 380): 92.6%
Positive rate (HT1080 cells) ([1]; without hemolyzing treatment, 30 min, 10 mM, 37° C., threshold value 450 (time series)): 97.1%
Positive rate (HT1080 cells) ([1]; without hemolyzing treatment, 60 min, 10 mM, 37° C., threshold value 500): 98.4%
Positive rate (Cancer cells) [2, 4]: 50.0%
Positive rate (Cancer cells) [2, 5]: 50.0%

NCC(=O)CCC(=O)O [aminolevulinic acid, 5-amino-4-oxopentanoic acid]
Positive rate (Fibroblast sarcoma cell (HT-1080)) ([3]; Ascorbic acid 0, FeC12 0): 97.3%
Positive rate (Fibroblast sarcoma cell (HT-1080)) ([3]; Ascorbic acid 0.3 mM, FeC12 0.3 mM): 79.3%
